Test results reported in BindingDB's records for doi:10.7270/Q2D798VP (Broad Institute, 2009).
Structures can show the parent of a compound that is named as a salt.

Each molecule was assayed against T1, Zinc finger protein mex-5 (Caenorhabditis elegans, UniProt Q9XUB2) (assay: MEX-5/TCR-2 RNA interaction inhibitors, dose response, biochemical, C. elegans, fluorescence polarization (AID 1960)).
T1 sequence (Q9XUB2 whole entry): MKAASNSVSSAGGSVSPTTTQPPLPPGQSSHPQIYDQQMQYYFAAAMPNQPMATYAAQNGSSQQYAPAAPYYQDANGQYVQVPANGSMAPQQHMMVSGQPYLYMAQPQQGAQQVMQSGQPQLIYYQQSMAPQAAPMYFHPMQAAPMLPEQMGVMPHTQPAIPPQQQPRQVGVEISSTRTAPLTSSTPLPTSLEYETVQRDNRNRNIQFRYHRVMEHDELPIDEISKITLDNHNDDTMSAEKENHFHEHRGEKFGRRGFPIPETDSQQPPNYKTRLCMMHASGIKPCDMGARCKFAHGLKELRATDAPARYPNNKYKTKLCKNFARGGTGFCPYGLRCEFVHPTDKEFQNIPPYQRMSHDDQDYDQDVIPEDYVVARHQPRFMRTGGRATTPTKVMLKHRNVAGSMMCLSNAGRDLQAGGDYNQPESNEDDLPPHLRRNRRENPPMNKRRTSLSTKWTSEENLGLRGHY

SMILES	EC50 [µM]
Cc1nnc(N2C(=O)C(=O)C(C(=O)c3ccco3)C2c2cccc3ccccc23)s1 (stereo unspecified) [3-(furan-2-carbonyl)-4-hydroxy-1-(5-methyl-1,3,4-thiadiazol-2-yl)-2-naphthalen-1-yl-2H-pyrrol-5-one]	> 300
CN(C)c1ccc(O)c2c1CC1CC3C(N(C)C)C(=O)C(C(N)=O)C(=O)[C@@]3(O)C(=O)C1C2=O (stereo partly drawn) [(2E,12aS)-2-[azanyl(oxidanyl)methylidene]-4,7-bis(dimethylamino)-10,11,12a-tris(oxidanyl)-4a,5,5a,6-tetrahydro-4H-tetracene-1,3,12-trione;hydrochloride]	37
N#CC1C(=N)OC2=C(C(=O)CC(c3ccccc3)C2)C1c1ccc2c(c1)OCO2 (stereo unspecified)	> 300
CCOC(=O)C1=C(C)OC(=N)C(C#N)C1c1ccc(O)c(OC)c1 (stereo unspecified) [6-amino-5-cyano-4-(4-hydroxy-3-methoxyphenyl)-2-methyl-4H-pyran-3-carboxylic acid ethyl ester]	> 300
c1ccc(C2=Nc3nnnn3C(c3cccs3)C2)cc1 (stereo unspecified) [5-Phenyl-7-thiophen-2-yl-4,7-dihydro-tetrazolo[1,5-a]pyrimidine]	> 300
C=CCn1c(=O)c(=Cc2ccsc2)s/c1=C(\C#N)C(=O)NCCN1CCOCC1 [2-[3-allyl-4-keto-5-(3-thenylidene)thiazolidin-2-ylidene]-2-cyano-N-(2-morpholinoethyl)acetamide]	21.9
N#CC1=C2CCOC[C@@H]2[C@@H](c2ccsc2)C(C#N)(C#N)C1=N [(8R,8aR)-6-amino-8-(3-thienyl)-1,3,8,8a-tetrahydroisochromene-5,7,7-tricarbonitrile]	> 300
C=CCOc1ccc(C2C(C(=O)c3ccco3)C(=O)C(=O)N2c2nnc(C)s2)cc1 (stereo unspecified) [3-(furan-2-carbonyl)-4-hydroxy-1-(5-methyl-1,3,4-thiadiazol-2-yl)-2-(4-prop-2-enoxyphenyl)-2H-pyrrol-5-one]	> 300
CCOC(=O)c1c2ccc(OCC(=O)NN=Cc3ccc(Cl)cc3)cc2n2ccccc12 [3-[2-[2-[(4-chlorophenyl)methylidene]hydrazinyl]-2-oxoethoxy]-10-pyrido[1,2-a]indolecarboxylic acid ethyl ester]	160
COc1ccc(C2C(C(C)=O)=C(C)N=c3sc(=Cc4cc(C)n(C)c4C)c(=O)n32)c(OC)c1 (stereo unspecified)	21
COc1ccc(C2C(C(=O)c3cccs3)C(=O)C(=O)N2c2nncs2)cc1 (stereo unspecified)	0.1
COc1ccc(C2CC(=O)C(=CNCCCO)C(=O)C2)cc1 (stereo unspecified) [2-[(3-hydroxypropylamino)methylidene]-5-(4-methoxyphenyl)cyclohexane-1,3-dione]	37.9
CCN(CC)CCNC=C1C(=O)NC(=O)N(Cc2ccccc2)C1=O [(5Z)-1-benzyl-5-[[2-(diethylamino)ethylamino]methylene]barbituric acid]	> 300
O=C(O)COc1ccc(C=Cc2nnc(-c3ccccc3O)[nH]2)cc1 [2-[4-[(E)-2-[(5Z)-5-(6-oxo-1-cyclohexa-2,4-dienylidene)-1,2-dihydro-1,2,4-triazol-3-yl]ethenyl]phenoxy]acetic acid]	0.945
CC1=NC(c2ccccc2)C(C#N)(C#N)C(C#N)(C#N)C1 (stereo unspecified) [SMR000037705]	2.46
NC(=NNC=c1ccc(=C2C=CC(=O)C(C(=O)O)=C2)o1)N[N+](=O)[O-] [5-(5-{2-[amino(nitroimino)methyl]carbonohydrazonoyl}-2-furyl)-2-hydroxybenzoic acid]	26.1
Cc1c(NC=C2C(=O)NC(=O)N(Cc3ccccc3)C2=O)c(=O)n(-c2ccccc2)n1C [(5E)-1-benzyl-5-[[(1,5-dimethyl-3-oxo-2-phenylpyrazol-4-yl)amino]methylidene]-1,3-diazinane-2,4,6-trione]	> 300
Cn1c(=O)[nH]c(=O)c2c1nc(N=NC=C(Br)Cc1ccccc1)n2CCO [SMR000436442]	55.5
COc1ccc(N=CCC(=O)c2ccc(C)cc2)cc1OC [SMR000269732]	> 300
Cc1[nH]c2ccccc2c1/C=C1\N=C(c2ccc(F)cc2)OC1=O [2-(4-fluorophenyl)-4-[(2-methyl-1H-indol-3-yl)methylene]-1,3-oxazol-5(4H)-one]	5.53
Cc1c(C(=O)O)cccc1-n1c(C)cc(CN=Nc2ccc([N+](=O)[O-])cn2)c1C	50.2
C=CC1=C(C(=O)O)N2C(=O)[C@@H](NC(=O)C(N=O)c3csc(N)n3)[C@H]2SC1 (stereo partly drawn) [(6R,7R)-7-[[2-(2-azanyl-1,3-thiazol-4-yl)-2-hydroxyimino-ethanoyl]amino]-3-ethenyl-8-oxidanylidene-5-thia-1-azabicyclo[4.2.0]oct-2-ene-2-carboxylic acid]	33.3
CCOc1ccc(N2C(=O)C(=Cc3ccco3)C(=O)NC2=S)cc1 [MLS001205052]	178

SMILES	EC50 [µM]
CN(C)[C@@H]1C(=O)C(C(N)=O)C(=O)[C@@]2(O)C(=O)C3C(=O)c4c(O)cccc4[C@@](C)(O)C3C(O)C12 (stereo partly specified) [SMR000875333]	20.5
O=C1c2cccc([N+](=O)[O-])c2C(=O)N1n1c(O)csc1=S [2-(4-keto-2-thioxo-thiazolidin-3-yl)-4-nitro-isoindoline-1,3-quinone]	24.8
CC1(C)CC(=O)C2=C(C1)OC(=N)C(C#N)C2c1ccccc1OC(=O)N1CCOCC1 (stereo unspecified) [2-(2-amino-3-cyano-7,7-dimethyl-5-oxo-5,6,7,8-tetrahydro-4H-chromen-4-yl)phenyl morpholine-4-carboxylate]	> 300
CC1(C)CC(=O)C2=C(C1)OC(=N)C(C#N)C21C(=O)N(CN2CCOCC2)c2ccccc21 (stereo unspecified) [2-amino-2',5-diketo-7,7-dimethyl-1'-(morpholinomethyl)spiro[6,8-dihydrochromene-4,3'-indoline]-3-carbonitrile]	> 300
Cc1cc(CN=Nc2ccc([N+](=O)[O-])cn2)c(C)n1-c1ccc(C(=O)O)cc1 [4-{2,5-dimethyl-3-[2-(5-nitro-2-pyridinyl)carbonohydrazonoyl]-1H-pyrrol-1-yl}benzoic acid]	111
Cc1nnc(N2C(=O)C(=O)C(C(=O)c3ccco3)C2c2ccc(C(C)(C)C)cc2)s1 (stereo unspecified) [2-(4-tert-butylphenyl)-3-(furan-2-carbonyl)-4-hydroxy-1-(5-methyl-1,3,4-thiadiazol-2-yl)-2H-pyrrol-5-one]	7.86
Cc1cc(CN=Nc2ccc([N+](=O)[O-])cn2)c(C)n1-c1cccc(C(=O)O)c1 [3-[2,5-dimethyl-3-[[(5-nitro-2-pyridinyl)hydrazinylidene]methyl]-1-pyrrolyl]benzoic acid]	37.7
C=CCN1C(=O)NC(=O)C(=CNc2ccc(N(CC)CC)cc2)C1=O [(5E)-1-allyl-5-[[4-(diethylamino)anilino]methylene]barbituric acid]	113
CC(=O)C1C(c2ccccc2)=NC(=O)NC1c1ccc(O)c(O)c1 (stereo unspecified) [4-[3,4-bis(oxidanyl)phenyl]-5-ethanoyl-6-phenyl-3,4-dihydro-1H-pyrimidin-2-one]	43.4
COc1cccc(CN2C(=O)C3(C4=C(CCCC4=O)OC(=N)C3C#N)c3ccccc32)c1 (stereo unspecified) [2-amino-1'-(3-methoxybenzyl)-2',5-dioxo-1',2',5,6,7,8-hexahydrospiro[chromene-4,3'-indole]-3-carbonitrile]	> 300
O=C(N/N=C/C1C=C(Cl)C=C([N+](=O)[O-])C1=O)c1ccccc1NS(=O)(=O)c1cccs1 (stereo unspecified) [SMR000364876]	1.56
COc1cc(OC)c(C2C3=C(CC(C)CC3=O)OC(=N)C2C#N)cc1OC (stereo unspecified) [2-amino-4-asaryl-5-keto-7-methyl-4,6,7,8-tetrahydrochromene-3-carbonitrile]	> 300
C=CCc1cccc(C=Nn2cnnc2)c1O [(6E)-2-allyl-6-[(1,2,4-triazol-4-ylamino)methylene]cyclohexa-2,4-dien-1-one]	238
CCOc1cc(C=C2SC(Nc3ccc(CC)cc3)=NC2=O)ccc1OCC(=O)O [2-[2-ethoxy-4-[(Z)-[2-(4-ethylanilino)-4-oxo-1,3-thiazol-5-ylidene]methyl]phenoxy]acetic acid]	149
Cc1ccc(C2C3CN(C(C)C)CCC3=C(C#N)C(=N)C2(C#N)C#N)cc1 (stereo unspecified) [SMR000034220]	8.29
NC(=O)c1ccccc1N=CCC(=O)c1ccc(F)cc1 [2-[[(E)-3-(4-fluorophenyl)-3-keto-prop-1-enyl]amino]benzamide]	> 300
Cc1n[nH]c(C)c1Sc1ccccc1/N=C/C1C=C(Cl)C=C([N+](=O)[O-])C1=O (stereo unspecified) [(6E)-4-chloranyl-6-[[[2-[(3,5-dimethyl-1H-pyrazol-4-yl)sulfanyl]phenyl]amino]methylidene]-2-nitro-cyclohexa-2,4-dien-1-one]	7.57
N#CC1C(=N)OC2=C(C(=O)CCC2)C1c1ccc2c(c1)OCO2 (stereo unspecified)	> 300
COC(=O)c1ccc(-n2c(C)cc(CN=Nc3nc(C)cc(=O)[nH]3)c2C)cc1 [SMR000364461]	> 300
CSc1nncc(C(C)N=Nc2ccccc2)n1 (stereo unspecified) [1-[3-(methylsulfanyl)-1,2,4-triazin-5-yl]ethanone phenylhydrazone]	> 300
CC(=O)Nc1ccc(N=CCC(=O)c2ccc(C)o2)cc1 [MLS000089004]	> 300
CN1CCC2=C(C#N)C(=N)C(C#N)(C#N)[C@H](c3cccc(Cl)c3)C2C1 (stereo partly drawn) [(8S)-6-amino-8-(3-chlorophenyl)-2-methyl-1,3,8,8a-tetrahydroisoquinoline-5,7,7-tricarbonitrile]	11.6
CCCCOc1cccc(C2C(C(=O)c3ccc(C)o3)C(=O)C(=O)N2c2nnc(C)s2)c1 (stereo unspecified) [2-(3-butoxyphenyl)-3-(5-methylfuran-2-yl)carbonyl-1-(5-methyl-1,3,4-thiadiazol-2-yl)-4-oxidanyl-2H-pyrrol-5-one]	77.4
